Results reported in PMC5650337, “A peptidomimetic with a chiral switch is an inhibitor of epidermal growth factor receptor heterodimerization” (Oncotarget, 2017).
pIC50, pKd: −log10 of the molar value. Where a SMILES comes first, the peptide text is derived from it.

How the values were obtained:
[1] = target: T1, HER2:HER3 dimerization in transfected U2OS cells (Homo sapiens, UniProt P04626); experiment: Enzyme fragment complementation (PathHunter) assay; format: cell-based; settings: in the presence of 0.3 µM NRG1
T1 construct: host or cells: U2OS
Description: A Pathhunter assay kit was obtained from DiscoverX, and enzyme fragment complementation assay was carried out. U2OS cells transfected with HER3:HER2 were used for the assay. After cells were attached to the wells, they were incubated with compound 18 and controls at different concentration in the presence of neuregulin-1 (NRG-1) at 0.3 µM concentration. After 24 h of incubation, reagents were added, and luminescence was measured and compared with a control without any compound. A plot of luminescence versus concentration was obtained to measure the dimerization of HER3:HER2 and its inhibition by compound 18.

[2] = target: T2, EGFR (Homo sapiens, UniProt P00533); experiment: Surface plasmon resonance analysis; format: binding; settings: data not shown
T2 construct: Extracellular domains of proteins HER2, EGFR, HER3, and HER4 purchased from Leinco Technologies; purchased Leinco Technologies (St. Louis, MO)
Description: (§1) Surface plasmon resonance analysis was performed using GE X100. Extracellular domains of proteins HER2, EGFR, HER3, and HER4 purchased from Leinco Technologies (St. Louis, MO). […] Compound 18 and controls were used as analytes. Compound 18 at different concentrations (0 to 200 µM) was passed through an SPR chip, and binding kinetics were analyzed for each of the EGFR bindings. A blank subtracted sensorgram for compound 18 was represented.

[3] = target: domain IV of HER2 (Homo sapiens, UniProt P04626); experiment: Surface plasmon resonance analysis; format: binding; settings: protein immobilized on CM5 chip
Description: as §1

[4] = target: T3, HER2 ECD (domains I to IV) (Homo sapiens, UniProt P04626); experiment: Surface plasmon resonance analysis; format: binding
T3 construct: Extracellular domains of proteins HER2, EGFR, HER3, and HER4 purchased from Leinco Technologies; purchased Leinco Technologies (St. Louis, MO)
Description: as §1

[5] = target: T4, HER3 (Homo sapiens, UniProt P21860); experiment: Surface plasmon resonance analysis; format: binding; settings: data not shown
T4 construct: Extracellular domains of proteins HER2, EGFR, HER3, and HER4 purchased from Leinco Technologies; purchased Leinco Technologies (St. Louis, MO)
Description: as §1

[6] = target: T5, HER4 (Homo sapiens, UniProt Q15303); experiment: Surface plasmon resonance analysis; format: binding; settings: data not shown
T5 construct: Extracellular domains of proteins HER2, EGFR, HER3, and HER4 purchased from Leinco Technologies; purchased Leinco Technologies (St. Louis, MO)
Description: as §1

[7] = tested on: NCI-H1975 cells (EGFR L858R/T790M)
Description: Antiproliferative activity was measured by CellTiter-Glo®, [49] a luminescence-based cell viability assay. In a 96-well plate, 1 × 10^4 cells/well were seeded and incubated overnight at 37°C and 5% CO2. Stock solutions of peptidomimetics were prepared by dissolving 1.5 mg/mL of compounds in DMSO. Stock solution of the compounds were diluted using the serum-free medium to prepare solutions of different concentrations of compounds. […] As controls, cells treated with 1% sodium dodecyl sulfate and 1% dimethyl sulfoxide were used. At the end of the experiment, CellTiter-Glo® reagent was added, and luminescence was measured by a plate reader. A dose response curve was generated using luminescence vs concentration of compounds and IC50 values were obtained using Prism® (GraphPad Software, La Jolla, CA). Experiments were repeated at least three times to obtain standard deviation values.

[8] = tested on: MCF-7 cells; experiment: Antiproliferative activity (CellTiter-Glo); format: cell-based
From the text: (§2) Erlotinib was from Sigma (Sigma-Aldrich Chemie GmbH).

[9] = tested on: MCF-10A normal breast epithelial cell line; experiment: Antiproliferative activity (CellTiter-Glo); format: cell-based
From the text: as §2

[10] = tested on: SKBR-3 cells; experiment: TUNEL assay; format: cell-based; settings: 5 and 10 µM
Description: Ten thousand SKBR-3 cells were added to each well of Lab-Tek® 8-chamber slides and incubated overnight for cell attachment. […] Cells were washed twice with cold PBS. Cell fixation was achieved using 10% buffered formalin followed by permeabilization of membranes using 0.2% Triton X-100 in PBS at room temperature. 100 µL of rTdT reaction mix containing biotinylated nucleotide mix was added. The slide was placed in a humidity chamber and incubated for 60 min at 37°C. With the addition of dilute saline-sodium citrate (SSC) solution (20X provided with the kit diluted to 2X), the reaction was stopped. Three PBS washes were made to ensure the removal of remaining unincorporated biotinylated nucleotides on the slide. Treatment with 0.3% hydrogen peroxide was done to block the endogenous peroxidases in the cells. The slide was incubated for 30 min at room temperature with dilute streptavidin HRP solution (1:500 in PBS). Diaminobenzidine (DAB) was added to stain the slide. After drying, DAPI was used to counterstain the nuclei, and images were obtained using a Nikon Eclipse TS100. The number of cells that had undergone apoptosis was counted and quantified.

T3 sequence (P04626 23-652 limits assumed): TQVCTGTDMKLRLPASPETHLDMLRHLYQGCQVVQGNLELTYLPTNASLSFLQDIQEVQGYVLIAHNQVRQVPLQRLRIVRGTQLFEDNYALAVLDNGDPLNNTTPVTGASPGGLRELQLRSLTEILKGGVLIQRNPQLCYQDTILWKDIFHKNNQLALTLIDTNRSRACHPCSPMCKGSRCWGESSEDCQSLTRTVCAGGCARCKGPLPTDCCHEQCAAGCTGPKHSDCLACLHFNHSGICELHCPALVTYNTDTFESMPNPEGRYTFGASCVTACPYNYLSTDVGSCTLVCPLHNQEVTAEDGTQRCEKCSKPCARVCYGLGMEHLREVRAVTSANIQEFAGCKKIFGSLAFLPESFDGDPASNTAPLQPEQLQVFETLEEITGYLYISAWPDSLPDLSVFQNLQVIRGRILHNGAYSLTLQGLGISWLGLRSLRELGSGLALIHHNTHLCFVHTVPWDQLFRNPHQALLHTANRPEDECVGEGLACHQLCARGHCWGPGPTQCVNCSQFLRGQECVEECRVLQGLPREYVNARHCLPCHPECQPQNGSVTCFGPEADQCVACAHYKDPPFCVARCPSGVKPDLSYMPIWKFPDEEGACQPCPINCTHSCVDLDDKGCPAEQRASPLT
T2 sequence (P00533 25-645 limits assumed): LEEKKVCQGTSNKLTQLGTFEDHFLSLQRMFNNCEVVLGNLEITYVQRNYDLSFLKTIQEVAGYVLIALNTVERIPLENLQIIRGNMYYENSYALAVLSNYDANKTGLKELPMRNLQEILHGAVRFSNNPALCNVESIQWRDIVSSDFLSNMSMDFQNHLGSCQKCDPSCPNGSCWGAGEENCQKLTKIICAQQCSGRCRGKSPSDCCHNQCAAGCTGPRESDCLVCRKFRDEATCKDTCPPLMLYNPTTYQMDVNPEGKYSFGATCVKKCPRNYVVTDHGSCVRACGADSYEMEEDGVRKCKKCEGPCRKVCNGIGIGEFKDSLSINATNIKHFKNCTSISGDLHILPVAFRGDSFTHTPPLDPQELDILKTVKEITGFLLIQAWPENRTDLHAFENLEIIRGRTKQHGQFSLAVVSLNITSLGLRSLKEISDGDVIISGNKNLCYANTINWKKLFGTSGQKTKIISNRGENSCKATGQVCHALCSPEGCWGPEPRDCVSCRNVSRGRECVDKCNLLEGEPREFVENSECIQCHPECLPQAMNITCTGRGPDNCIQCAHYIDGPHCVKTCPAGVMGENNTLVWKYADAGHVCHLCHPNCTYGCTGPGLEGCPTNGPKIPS
T5 sequence (Q15303 26-651 limits assumed): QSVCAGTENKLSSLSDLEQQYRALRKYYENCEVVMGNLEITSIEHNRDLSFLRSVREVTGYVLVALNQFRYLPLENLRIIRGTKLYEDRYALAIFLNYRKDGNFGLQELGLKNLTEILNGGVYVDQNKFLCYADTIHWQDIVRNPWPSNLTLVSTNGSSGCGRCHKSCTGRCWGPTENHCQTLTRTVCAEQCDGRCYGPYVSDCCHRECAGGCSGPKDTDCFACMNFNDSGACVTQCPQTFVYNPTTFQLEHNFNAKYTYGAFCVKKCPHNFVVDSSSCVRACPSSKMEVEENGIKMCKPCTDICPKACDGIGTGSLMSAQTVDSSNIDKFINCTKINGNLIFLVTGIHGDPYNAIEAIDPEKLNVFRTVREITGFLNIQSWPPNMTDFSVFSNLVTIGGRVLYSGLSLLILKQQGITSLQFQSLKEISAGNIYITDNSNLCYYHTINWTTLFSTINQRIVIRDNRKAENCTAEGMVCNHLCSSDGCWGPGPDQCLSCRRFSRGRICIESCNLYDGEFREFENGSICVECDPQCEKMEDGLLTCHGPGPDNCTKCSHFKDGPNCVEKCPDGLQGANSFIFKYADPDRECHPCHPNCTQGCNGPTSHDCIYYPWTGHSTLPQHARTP
Chain of domain IV of HER2 (P04626 511-652 limits assumed): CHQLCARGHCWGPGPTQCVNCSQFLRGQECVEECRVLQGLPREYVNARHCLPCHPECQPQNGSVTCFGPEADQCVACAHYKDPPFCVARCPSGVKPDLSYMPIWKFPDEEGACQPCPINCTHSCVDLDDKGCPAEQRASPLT
T1 sequence (P04626 23-1255): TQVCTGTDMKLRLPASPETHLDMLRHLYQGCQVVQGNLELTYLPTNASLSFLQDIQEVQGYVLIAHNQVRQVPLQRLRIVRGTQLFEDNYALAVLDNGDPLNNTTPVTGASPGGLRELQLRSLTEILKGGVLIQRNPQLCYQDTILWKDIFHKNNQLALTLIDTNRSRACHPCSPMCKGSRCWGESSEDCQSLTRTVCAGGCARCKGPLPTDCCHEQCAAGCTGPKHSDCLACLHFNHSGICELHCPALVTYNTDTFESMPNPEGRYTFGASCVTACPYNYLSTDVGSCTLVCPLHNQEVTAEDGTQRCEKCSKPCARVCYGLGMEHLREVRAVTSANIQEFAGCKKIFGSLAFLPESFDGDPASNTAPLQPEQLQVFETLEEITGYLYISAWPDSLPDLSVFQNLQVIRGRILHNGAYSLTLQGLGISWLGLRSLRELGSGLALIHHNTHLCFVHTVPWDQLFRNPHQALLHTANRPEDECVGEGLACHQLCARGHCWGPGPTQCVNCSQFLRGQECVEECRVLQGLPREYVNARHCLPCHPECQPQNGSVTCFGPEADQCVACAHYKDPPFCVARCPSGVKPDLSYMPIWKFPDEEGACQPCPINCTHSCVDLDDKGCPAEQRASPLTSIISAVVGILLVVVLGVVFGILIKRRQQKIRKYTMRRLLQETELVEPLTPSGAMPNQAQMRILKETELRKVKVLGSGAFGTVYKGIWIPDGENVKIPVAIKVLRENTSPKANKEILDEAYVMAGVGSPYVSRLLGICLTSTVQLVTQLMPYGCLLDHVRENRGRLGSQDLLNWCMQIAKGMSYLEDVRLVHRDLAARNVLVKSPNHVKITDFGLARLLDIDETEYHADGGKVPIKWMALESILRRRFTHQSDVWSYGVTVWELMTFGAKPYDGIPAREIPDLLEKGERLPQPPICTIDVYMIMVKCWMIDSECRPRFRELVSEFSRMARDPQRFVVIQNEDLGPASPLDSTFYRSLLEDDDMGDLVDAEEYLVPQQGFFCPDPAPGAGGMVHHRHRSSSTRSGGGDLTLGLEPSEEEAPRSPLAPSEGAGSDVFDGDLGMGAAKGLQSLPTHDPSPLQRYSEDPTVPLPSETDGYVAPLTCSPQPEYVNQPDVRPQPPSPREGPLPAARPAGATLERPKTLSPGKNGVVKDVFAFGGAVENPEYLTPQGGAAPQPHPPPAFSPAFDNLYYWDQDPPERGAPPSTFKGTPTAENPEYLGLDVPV
T4 sequence (P21860 20-643 limits assumed): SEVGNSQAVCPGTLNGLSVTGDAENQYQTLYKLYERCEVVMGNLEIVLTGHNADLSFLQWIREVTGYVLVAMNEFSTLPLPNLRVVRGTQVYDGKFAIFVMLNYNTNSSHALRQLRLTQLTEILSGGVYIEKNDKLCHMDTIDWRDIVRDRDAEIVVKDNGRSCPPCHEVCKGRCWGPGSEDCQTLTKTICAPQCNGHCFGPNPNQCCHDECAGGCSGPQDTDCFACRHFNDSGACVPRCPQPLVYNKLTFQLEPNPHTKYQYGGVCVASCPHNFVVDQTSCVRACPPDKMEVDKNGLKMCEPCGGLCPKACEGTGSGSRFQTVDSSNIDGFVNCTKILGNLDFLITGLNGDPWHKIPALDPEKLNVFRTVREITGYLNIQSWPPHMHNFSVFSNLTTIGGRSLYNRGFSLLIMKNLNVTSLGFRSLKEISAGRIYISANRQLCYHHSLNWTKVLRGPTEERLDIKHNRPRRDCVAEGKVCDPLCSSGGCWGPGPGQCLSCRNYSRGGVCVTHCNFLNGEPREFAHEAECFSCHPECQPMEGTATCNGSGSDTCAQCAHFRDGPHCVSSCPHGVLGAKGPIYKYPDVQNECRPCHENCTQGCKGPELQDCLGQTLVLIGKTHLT

N=C(N)NCCC[C@@H]1NC(=O)[C@H]2CCCN2C(=O)[C@@H]2CCCN2C(=O)[C@H](CCCNC(=N)N)NC(=O)C[C@H](c2cccc3ccccc23)NC(=O)[C@H](Cc2ccccc2)NC(=O)[C@H](CC(=O)O)NC(=O)[C@H](CC(=O)O)NC(=O)[C@H](Cc2ccccc2)NC(=O)C[C@H](c2cccc3ccccc23)NC1=O [compound 18, Cyclo(1,10)P^1p^2R^3(R-Anapa)^4F^5D^6D^7F^8(R-Anapa)^9R^10] (HELM PEPTIDE1{P.[dP].R.[O=C(C[C@@H](N[*:1])c1cccc2ccccc12)[*:2]].F.D.D.F.[O=C(C[C@@H](N[*:1])c1cccc2ccccc12)[*:2]].R}$PEPTIDE1,PEPTIDE1,1:R1-10:R2$$$V2.0)
Inhibition of HER2:HER3 dimerization (PathHunter) [1]: dimerization of HER2:HER3 is inhibited in a concentration-dependent manner | SPR binding to EGFR [2]: did not indicate any significant change in response | SPR binding to HER2 domain IV [3]: concentration-dependent binding | koff ([4]; SPR, 1:1 binding Langmuir fit): 5.97 s⁻¹ | kon ([4]; SPR, 1:1 binding Langmuir fit): 4.76e+07 M⁻¹ s⁻¹ | pKd ([4]; calculated from kon and koff): 6.90 | SPR binding to HER2 ECD ([4]; protein immobilized on CM5 chip, substance as analyte): concentration-dependent binding | SPR binding to HER3 [5]: did not indicate any significant change in response | SPR binding to HER4 [6]: did not indicate any significant change in response | Synergistic effect with erlotinib (isobologram) ([7]; NCI-H1975, compound 18 plus erlotinib): synergistic effect | pIC50 ([7]; read-out: IC50 in NCI-H1975, EGFR L858R/T790M lung cancer cell line): 5.31 | Synergistic effect with erlotinib (isobologram) ([8]; MCF-7, compound 18 plus erlotinib): no synergistic effect | pIC50 ([8]; breast cancer cells that do not overexpress HER2, 72 h): < 4.30 | Activity in MCF-10A relative to Calu-3 (times less) ([9]; IC50 MCF-10A vs Calu-3): ~2000 times | Activity in MCF-10A relative to SKBR-3 (times less) ([9]; IC50 MCF-10A vs SKBR-3): ~200 times | Apoptosis (TUNEL staining) [10]: positive staining for apoptosis
